Experimental data from patent US20110117070A1, “COMPOSITIONS AND METHODS FOR TREATING HEADACHE” (priority 2005, published 2011).
Values joined by “and” are separate entries in the source; they are usually repeats but may differ in a detail not shown here. Identical values can stand only once. Like-named read-outs stand apart in the source and are kept apart here.

What was measured:
[1] = Retrospective chart review of topiramate side effect profile in 20 migraine patients; type: in vivo, human; design: key: 1: mild or none; 2: tolerable, not treatment limiting; 3: warrants trial of topiramate dose reduction; 4: considering stopping topiramate treatment strongly; conditions: topiramate alone, monotherapy for at least 6 weeks; one line per patient at the indicated daily dosage
migraine [2] = conditions: cited from earlier work; for reduction of migraine incidents vs. placebo: 50 mg/day or less
cluster headaches = conditions: cited from earlier work
migraine [3] = experiment: Retrospective chart review of migraine treatment efficacy in 20 headache clinic patients; type: in vivo, human; design: concentration or dose not given beside the values; conditions: topiramate alone, monotherapy for at least 6 weeks; one line per patient at the indicated daily dosage
Method: (§1) In a headache clinic, 20 patients suffering from migraine are treated with a dosage of topiramate and then an additional, secondary therapeutic component comprising one of the following therapeutic agents, or mixture of agents: 1) a commercially available combination tablet sold under the name Migrelief® dietary supplement contains puracol feverfew extract (comprising partheolide), magnesium citrate/oxide (1:1), and riboflavin; and 2) a second medicine having the trade name Migravent® natural supplement containing butterbur extract (including petasin and isopetasin), and a blend of riboflavin, magnesium and coenzyme Q10; these combined ingredients are present in a “proprietary blend” of 876 mg.
(§2) In twenty patients suffering from migraine the effect of augmentation of topiramate treatment was formally documented. […] Patients were treated in combination therapy with topiramate and the indicated second agent for 6 weeks before side effect and efficacy data were obtained for comparison with the monotherapy data. Dosages of the second therapeutic component was as follows: Migravent: 150 mg pyrrolizidine alkaloids (PA) free) and 876 mg (Riboflavin, Magnesium, Co-enzyme Q-10 [propriety blend]); Migralief: Magnesium citrate and oxide 360 mg, riboflavin 400 mg and Puracol Feverfew (Tanacetum parthenium). […]

migraine [4] = experiment: as above; type: in vivo, human; design: key: 1: no measurable efficacy; 2: some measurable difference in severity and or frequency of headache; 3: modest improvement in severity or frequency of headache; 4: headache frequency improvement either 50% or greater in frequency, severity or both; conditions: topiramate alone, monotherapy for at least 6 weeks; one line per patient at the indicated daily dosage
Method: as §1, §2

[5] = cited from earlier work
Leishmania amazonensis = conditions: cited from earlier work
[6] = test system: acute myelogenous leukemia cells; conditions: normal bone marrow cells relatively unscathed; cited from earlier work

| Molecule | Side Effects [1] | reduction of migraine incidents vs. placebo (migraine [2]) | reduction of migraine incidents vs. placebo (migraine [2]; listed as toprimate) | Side Effects (migraine [2]; 100 mg or more per day) | prophylactic effect versus placebo (migraine [2]; 100 mg per day or greater) | patients reporting an increase in migraine and other headaches (migraine [2]; human, in vivo) [%] | reduction of migraine frequency (migraine [2]; patients having an average of 5.5 migraine per month, placebo: one headache per month) | rapid relief of cluster headaches (cluster headaches; 50, 100, or 125 mg/day) | time to control the cluster headaches (cluster headaches; daily delivery in the 50-125 mg range) | Efficacy (migraine [3]) | Efficacy (migraine [4]) | solubility in water [5] | activity against Leishmania amazonensis (Leishmania amazonensis) | effect on acute myelogenous leukemia cells [6] |
| --- | --- | --- | --- | --- | --- | --- | --- | --- | --- | --- | --- | --- | --- | --- |
| 2,3:4,5-Di-O-isopropylidene-β-D-fructopyranose sulfamate [Topiramate] | 1 (4×) and 4 (8×) and 3 (6×) and 2 (2×) | no statistical significance | did not show statistically significant efficacy | significant unacceptable side effects | statistically significant prophylactic effects | > 1 | about 2 headaches per month | inadequate in providing rapid relief | 1-3 weeks | 4 (headache frequency improvement either 50% or greater in frequency, severity or both) | 2 (9×) and 3 (8×) |  |  |  |
| C=C1C(=O)O[C@H]2[C@H]1CC/C(C)=C/CC[C@@]1(C)O[C@@H]21 [Parthenolide] |  |  |  |  |  |  |  |  |  |  |  | limited solubility in water | active against the parasite Leishmania amazonensis | destroy acute myelogenous leukemia cells by inducing apoptosis |
